Test results: ChEMBL document CHEMBL1201862, “PubChem BioAssay data set” (2004)
Calls of active or inactive are those of the source.

What was measured:
[1] = molecular target: Acyl-homoserine lactone acylase PvdQ (Pseudomonas aeruginosa (strain LESB58), UniProt Q9I194); experiment: P. aeruginosa PvdQ acylase inhibitors, dose response, biochemical, fluorescence, plate reader and imaging, cherry-picks (AID 493231)
[2] = Luminescence Cell-Based Dose Confirmation HTS to Identify Inhibitors of Platelet Dense Granule Release. [Related pubchem assays: 1663 (Primary HTS), 1678 (Summary of Project)]; type: functional
[3] = inhibition of ADP-Glo detection reagents, dose response, artefact control for CDK5 inhibitor project, biochemical, luminescence, cherry-picked samples, set 2 (AID 504546); type: functional
[4] = inhibitors of HIV Env-driven cell fusion, dose response, cherry-pick (AID 652057); type: functional, cell-based
[5] = CEM21 lymphoblast cell cytotoxicity, dose response, cytotoxicity control for viral fusion inhibitor project, CellTiter-Glo luminescence, cherry-picked (AID 652042); type: functional, cell-based;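 further: potency for signal decrease meaning cytotoxicity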
[6] = ZM109 Env clade C HIV-1 fusion inhibitors, dose response, HeLa effector, CEM target cells, luciferase, cherry-pick (AID 652058); type: functional, cell-based
[7] = off-target signal loss in HeLa-CEM21 co-culture – HeLa F-luc CTL cells, cherry-picked, counter-screen for HIV-1 Env fusion inhibitor project, dose response (AID 652040); type: functional, cell-based;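 further: potency for signal decrease marking cytotoxic or nonspecific inhibition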
[8] = inhibitors of clade B AD8 Env fusion, dose response, cell-based, cherry-pick (AID 652062); type: functional;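 further: luciferase signal from cell-cell fusion driven by HIV-1 clade B AD8 Env; potency is for inhibitors of fusion seen as a drop in luminescence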
[9] = non-specific cell cytotoxicity, dose response, cytotoxicity control for PAX8 inhibitor project, plate reader, dry powder samples (AID 743021); type: functional, cell-based
[10] = cytotoxicity in HPDE-C7 cells, cell-based, fluorescence, HTS (AID 430); type: functional; conditions: Homo sapiens
[11] = cytotoxicity in KRAS-transformed pancreatic duct cells, primary screen, cell-based, fluorescence, HTS (AID 431); type: functional; conditions: Homo sapiens;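 further: cell line used: HPDE-C7K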
[12] = molecular target: Neurotensin receptor type 1 (Homo sapiens, UniProt P30989); type: functional;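 further: Image-based confirmatory dose-response assay measuring agonist activity at NTR1; NTR1-expressing U2OS osteosarcoma cells imaged for beta-arrestin GFP spot formation; agonist potency where compounds increase beta-arrestin recruitment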
Cytochrome P450 2D6 = Cytochrome P450 2D6 (Homo sapiens, UniProt P10635); experiment: qHTS Assay for Inhibitors and Substrates of Cytochrome P450 2D6. [Related pubchem assays: 410 ]; type: ADME; conditions: read-out: Potency
Cytochrome P450 2C9 = Cytochrome P450 2C9 (Homo sapiens, UniProt P11712); conditions: Potency
[13] = test system: Streptococcus sp. 'group A'; experiment: growth inhibition of control SK(-) GAS strain, dose response, counter-screen for streptokinase expression inhibitor project, luminescence, kanamycin, BacTiterGlo, confirmation (AID 1900); type: functional, organism-based
[14] = molecular target: Transitional endoplasmic reticulum ATPase (Homo sapiens, UniProt P55072, C522A); experiment: C522A mutant p97 ATPase inhibitors, dose response, counter-screen for p97 inhibitor project, biochemical, luminescence (AID 1544)
Streptokinase A = molecular target: T1, Streptokinase A (Streptococcus pyogenes serotype M1, UniProt P10520); experiment: S. pyogenes streptokinase expression inhibitors, potency, dose response, plasminogen activation absorbance, OD405 (AID 1914); type: functional, Streptococcus pyogenes M1 GAS;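 further: secreted streptokinase activity via plasminogen activation per viability signal from cell pellet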
T1 sequence (P10520 whole entry): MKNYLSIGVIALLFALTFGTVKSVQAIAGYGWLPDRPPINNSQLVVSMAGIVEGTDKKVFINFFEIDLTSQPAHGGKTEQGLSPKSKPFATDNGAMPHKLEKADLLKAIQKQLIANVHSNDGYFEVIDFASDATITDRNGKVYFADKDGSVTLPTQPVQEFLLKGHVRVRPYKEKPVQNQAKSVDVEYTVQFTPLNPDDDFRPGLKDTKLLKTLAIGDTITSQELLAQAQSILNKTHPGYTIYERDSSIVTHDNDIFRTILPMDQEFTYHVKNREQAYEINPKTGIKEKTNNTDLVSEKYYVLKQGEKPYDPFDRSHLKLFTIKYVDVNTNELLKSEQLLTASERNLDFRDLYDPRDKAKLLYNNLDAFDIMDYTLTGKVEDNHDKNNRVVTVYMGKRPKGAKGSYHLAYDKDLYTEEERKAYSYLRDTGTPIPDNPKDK

[15] = molecular target: Transitional endoplasmic reticulum ATPase (Homo sapiens, UniProt P55072); experiment: p97 ATPase inhibitors, dose response, biochemical (AID 1534)
Streptococcus = experiment: Group A Streptococcus viability loss, dose response, counter-screen for streptokinase expression inhibitor project, luminescence, BacTiterGlo (AID 1915); type: functional, organism-based;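 further: potency for reduction of bacterial viability or growth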
Nonstructural protein 1 = Nonstructural protein 1 (Influenza A virus, UniProt Q194T2); type: functional, Influenza A virus (A/California/07/2009(H1N1))
[16] = molecular target: FAD-linked sulfhydryl oxidase ALR (Homo sapiens, UniProt P55789); experiment: inhibitors of human ALR sulfhydryl oxidase, dose response, biochemical, H2O2 detection, luminescence, cherry-pick (AID 493248)
[17] = Artemis endonuclease inhibitor potency, dose response, biochemical, fluorescence intensity (AID 720701); type: functional;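 further: Artemis endonuclease enzyme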
[18] = molecular target: T2, Eukaryotic translation initiation factor 2-alpha kinase 3 (Homo sapiens, UniProt Q9NZJ5); experiment: Dose response cell-based high-throughput screening assay to measure PERK inhibition. [Related pubchem assays: 1416 ]; type: functional
[19] = molecular target: T2, Eukaryotic translation initiation factor 2-alpha kinase 3; experiment: Counterscreen assay for PERK inhibitors: Dose response cell-based high throughput screening assay to measure inhibition of PERK at 6 hours. [Related pubchem assays: 1522, 1416 ]; type: functional
[20] = molecular target: T3, Alkaline phosphatase, tissue-nonspecific isozyme (Homo sapiens, UniProt P05186)
T3 sequence (P05186 whole entry): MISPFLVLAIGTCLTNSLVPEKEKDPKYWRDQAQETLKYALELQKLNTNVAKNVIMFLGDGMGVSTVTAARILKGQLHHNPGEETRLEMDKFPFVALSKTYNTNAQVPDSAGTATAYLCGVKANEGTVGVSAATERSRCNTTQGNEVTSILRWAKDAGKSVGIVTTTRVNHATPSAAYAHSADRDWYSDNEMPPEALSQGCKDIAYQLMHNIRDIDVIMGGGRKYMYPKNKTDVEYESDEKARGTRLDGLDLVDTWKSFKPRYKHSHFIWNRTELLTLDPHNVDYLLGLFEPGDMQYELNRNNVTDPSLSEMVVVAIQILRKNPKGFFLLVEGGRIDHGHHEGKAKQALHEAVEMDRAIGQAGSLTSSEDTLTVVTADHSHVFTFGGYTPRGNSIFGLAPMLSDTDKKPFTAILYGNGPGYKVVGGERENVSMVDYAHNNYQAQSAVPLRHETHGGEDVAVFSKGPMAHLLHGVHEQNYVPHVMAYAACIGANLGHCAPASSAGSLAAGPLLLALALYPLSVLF

Cc1cc(C)nc(N(C#N)Cc2cccc([N+](=O)[O-])c2)n1
AC50 [1]: 4.72 µM (active)

COc1ccc(C(=O)O/N=C(\N)c2ccccn2)cc1
EC50 [2]: 0.962 µM (active)
AC50 [3]: 19.8 µM (active)
AC50 [4]: 2.26 µM (active)
AC50 [5]: 21.6 µM (active)
AC50 [6]: 19.4 µM (active)
AC50 [7]: 7.65 µM (active)
AC50 [8]: 11.9 µM (active)
AC50 [9]: 30 µM (active)

Cc1sc(NC(=O)c2ccco2)nc1-c1ccc2c(c1)CC(C)N2C(=O)C1CC1 (stereo not given)
EC50 [10]: 7.02 µM (active)
EC50 [11]: 7.22 µM (active)
EC50 [12]: 30.2 µM (inactive)

Clc1nc(NCCc2ccccc2)c2ncn(-c3ccccc3)c2n1
AC50 (Cytochrome P450 2D6): 3.98 µM (inconclusive)
AC50 (Cytochrome P450 2C9): 7.94 µM (inconclusive)

O=C(NNc1c2ccccc2nc2ccccc12)c1ccc(O)cc1O
EC50 [13]: 2.59 µM (active)
IC50 [14]: > 50 µM (not active)
EC50 (Streptokinase A): > 150 µM (not active)
IC50 [15]: > 50 µM (not active)
EC50 (Streptococcus): 23.7 µM (active)
IC50 (Nonstructural protein 1): 32.1 µM (active)
AC50 [16]: 0.062 µM (active)
IC50 [17]: 13.3 µM (active)

Cc1nsc(N)c1C(=O)O
EC50 [18]: > 55.7 µM (not active)
EC50 [19]: > 55.7 µM (not active)

COc1ccccc1CNC(=O)C1(NC(=O)Nc2ccc(C)cc2)CCCCC1
EC50 [20]: 37.3 µM (active)
